The record followed here is ChEMBL document CHEMBL3244320, “2-Acetylpyridine thiosemicarbazones. 1. A new class of potential antimalarial agents” (J Med Chem, 1979).

Series [1] relates to Plasmodium berghei. As to the kind of experiment: Antimalarial activity against Plasmodium berghei KBG 173 infected in ICR/HA Swiss mouse assessed as increase in mean survival time at 320 mg/kg, sc administered 72 hrs post infection. It counts as functional. The note with it: route subcutaneous.
Series [2] concerns Plasmodium berghei. As to the kind of experiment: Antimalarial activity against Plasmodium berghei KBG 173 infected in ICR/HA Swiss mouse assessed as increase in mean survival time at 160 mg/kg, sc administered 72 hrs post infection. It counts as functional. The following applies: route subcutaneous.
Series [3] concerns Plasmodium berghei. As to the kind of experiment: Antimalarial activity against Plasmodium berghei KBG 173 infected in ICR/HA Swiss mouse assessed as increase in mean survival time at 80 mg/kg, sc administered 72 hrs post infection. The following applies: route subcutaneous. It is filed as functional.
The test system of series [4] is Plasmodium berghei. As to the kind of experiment: Antimalarial activity against Plasmodium berghei KBG 173 infected in ICR/HA Swiss mouse assessed as increase in mean survival time at 40 mg/kg, sc administered 72 hrs post infection. The note with it: route subcutaneous. It is filed as functional.
Series [5] has as its system Plasmodium berghei. Nature of the series: Antimalarial activity against Plasmodium berghei KBG 173 infected in ICR/HA Swiss mouse assessed as increase in mean survival time at 640 mg/kg, sc administered 72 hrs post infection. It counts as functional. The following applies: route subcutaneous.
Series [6] has as its system Mus musculus. As to the kind of experiment: Toxicity in ICR/HA Swiss mouse infected with Plasmodium berghei KBG 173 assessed as mortality at 640 mg/kg, sc administered 72 hrs post infection measured for 6 days. The following applies: in vivo, 144 h. Also noted: dose 640 mg/kg, route subcutaneous. It is filed as organism-based.
In series [7] the test system is Plasmodium berghei. Nature of the series: Antimalarial activity against Plasmodium berghei KBG 173 infected in ICR/HA Swiss mouse assessed as curative effect at 320 mg/kg, sc administered 72 hrs post infection. It is filed as functional, organism-based. Also noted: dose 320 mg/kg.
Series [8] relates to Plasmodium berghei. As to the kind of experiment: Antimalarial activity against Plasmodium berghei KBG 173 infected in ICR/HA Swiss mouse at 40 to 640 mg/kg, sc administered 72 hrs post infection. It counts as functional, organism-based.

Calls of active or inactive are those of the source. No cut-off for these calls is given here.

As for `C/C(=N\NC(=S)Nc1ccccc1[N+](=O)[O-])c1ccccn1`, the MST was 5.7 days in series [1]; 0.9 days in series [2]; 0.1 days in series [3]; 0.1 days in series [4]; 4.5 days in series [5].

In the case of `C=CCNC(=S)N/N=C(\C)c1ccccn1`, the MST in series [1] was found to be 3 days; in series [2] it was 3.1 days; in series [3], 2.3 days; in series [4], 0.5 days. The Activity entry in series [6] is listed as “Toxic”.

On to `C/C(=N\NC(=S)NCc1cccc(F)c1)c1ccccn1`, for which the MST in series [1] came to 5.8 days; in series [2], 3.4 days; in series [3] it was 1.4 days; in series [4], 0.4 days; in series [5], 9.4 days.

For `C/C(=N\NC(=S)Nc1cccc(Cl)c1)c1ccccn1`, the MST in series [1] stood at 5.1 days; in series [2] it was 2.5 days; in series [3], 0.3 days; in series [4] it was 0.3 days; in series [5] it was 7.1 days.

As for `Br.C/C(=N\NC(=S)NCC(C)N(C)C)c1ccccn1` (stereo not drawn), the Activity result in series [6] is on record as “Toxic”. Moreover, the MST in series [4] turned out to be 0.1 days.

`C/C(=N\NC(=S)Nc1cccc(F)c1)c1ccccn1`: the MST is 6.6 days in series [2], 5.8 days in series [3] and 4.4 days in series [4]. Besides, in series [7], the outcome was Active.

In the case of `C/C(=N\NC(=S)NCc1ccc(C)cc1C)c1ccccn1`, the MST in series [1] was determined as 6.1 days; in series [2], 3.1 days; in series [3] it was 0.1 days; in series [4] it was 0.5 days; in series [5] it was 8.9 days.

Take `C/C(=N\NC(=S)Nc1ccccc1)c1ccncc1`: the result in series [8] was inactive.

`C/C(=N\NC(=S)NC(C)(C)CC(C)(C)C)c1ccccn1`: the MST in series [1] amounted to 2.9 days; in series [2] it was 0.9 days; in series [3], 1.3 days; in series [4], 1.1 days; in series [5], 8.7 days.

Turning to `COc1ccccc1CNC(=S)N/N=C(\C)c1ccccn1`, the MST in series [1] turned out to be 3.5 days; in series [2], 1.3 days; in series [3] it was 0.3 days; in series [4], 0.1 days; in series [5], 6.9 days.

For `COc1ccc(CNC(=S)N/N=C(\C)c2ccccn2)cc1`, the MST in series [1] is 5.9 days; in series [2] it was 2.9 days; in series [3], 1.7 days; in series [4], 0.3 days; in series [5], 7.9 days.

Regarding `C/C(=N\NC(=O)Nc1ccccc1)c1ccccn1`, the result in series [8] was inactive.

As for `C/C(=N\NC(=S)Nc1ccccc1Cl)c1ccccn1`, the MST in series [1] was determined as 6.1 days; in series [2], 2.3 days; in series [3], 0.5 days; in series [4], 0.5 days; in series [5], 8.1 days.

`C/C(=N\NC(=S)NC12CC3CC(CC(C3)C1)C2)c1ccccn1`: the MST in series [1] came out at 8.5 days; in series [2] it was 3.7 days; in series [3], 1.1 days; in series [4], 0.7 days; in series [5] it was 9.2 days.

Take `C/C(=N\NC(=S)NCCO)c1ccccn1`: the MST amounted to 0.5 days in series [2] and 0.3 days in series [4]. Moreover, in series [6], the Activity entry was “Toxic”.

With `C/C(=N\NC(=S)Nc1ccccc1)c1cccnc1`, the result in series [8] was inactive.

In the case of `C/C(=N\NC(=S)Nc1ccccc1C)c1ccccn1`, the MST in series [1] worked out at 5.1 days; in series [2], 0.9 days; in series [3] it was 0.5 days; in series [4], 0.1 days; in series [5], 9.9 days.

Consider `COc1ccccc1NC(=S)N/N=C(\C)c1ccccn1`, for which the MST stood at 4.6 days in series [1]; 2 days in series [2]; 0.4 days in series [3]; 0.1 days in series [4]; 6.6 days in series [5].

As to `C/C(=N\NC(=S)Nc1c(C)cccc1C)c1ccccn1`, the MST in series [1] came out at 5.8 days; in series [2], 2 days; in series [3], 0.4 days; in series [4], 0.4 days; in series [5], 11.4 days.

For the compound `C/C(=N\NC(=S)NCc1ccc(Cl)cc1)c1ccccn1`, the MST is 4.3 days in series [1]; 2.1 days in series [2]; 0.5 days in series [3]; 0.5 days in series [4]; 6.9 days in series [5].

For the compound `C/C(=N\NC(=S)NC12CC3CC(CC(C3)C1)C2)c1cccnc1`, in series [8], the outcome was inactive.

`C/C(=N\NC(=S)Nc1ccc(Cl)cc1)c1ccccn1`: the MST in series [1] amounted to 4.3 days; in series [2] it was 1.7 days; in series [3] it was 1.5 days; in series [4] it was 0.5 days; in series [5] it was 8.3 days.

`C/C(=N\NC(=S)Nc1ccc(C(C)C)cc1)c1ccccn1`: the MST in series [1] turned out to be 5.9 days; in series [2], 2.1 days; in series [3], 1.9 days; in series [4], 0.5 days; in series [5] it was 5.5 days.

As to `COc1cccc(CNC(=S)N/N=C(\C)c2ccccn2)c1`, the MST in series [1] was 4.5 days; in series [2], 0.9 days; in series [3], 0.3 days; in series [4], 0.3 days; in series [5] it was 5.9 days.

In the case of `C/C(=N\NC(=S)Nc1ccccn1)c1cccnc1`, the result in series [8] was inactive.

In the case of `C/C(=N\NC(=S)NC12CC3CC(CC(C3)C1)C2)c1ccncc1`, in series [8], the outcome was inactive.

For the compound `Br.CCN(CC)CCCC(C)NC(=S)N/N=C(\C)c1ccccn1` (stereo not drawn), the Activity result in series [6] is listed as “Toxic”. Also, the MST in series [4] was found to be 0.3 days.

In the case of `C/C(=N\NC(=S)NCCc1ccccc1)c1ccccn1`, the MST was 6.6 days in series [1]; 2 days in series [2]; 0.6 days in series [3]; -0.2 days in series [4]; 8.8 days in series [5].

On to `CCc1ccccc1NC(=S)N/N=C(\C)c1ccccn1`, for which the MST in series [1] worked out at 3.1 days; in series [2] it was 0.7 days; in series [3], 0.3 days; in series [4], 0.3 days; in series [5], 5.1 days.

Regarding `COc1cccc(NC(=S)N/N=C(\C)c2ccccn2)c1`, the MST in series [1] came to 4.3 days; in series [2] it was 8.1 days; in series [3] it was 0.4 days; in series [4], 0.3 days; in series [5], 9.6 days.

In the case of `C/C(=N\NC(=S)Nc1ccccn1)c1ccccn1`, the MST in series [1] worked out at 6.5 days; in series [2], 4.5 days; in series [3], 2.7 days; in series [4] it was 1.5 days; in series [5] it was 8.1 days.

Turning to `C/C(=N\NC(=S)Nc1ccccn1)c1ccncc1`, the result in series [8] was inactive.

As for `CCc1ccc(NC(=S)N/N=C(\C)c2ccccn2)cc1`, the MST in series [1] came to 3.1 days; in series [2] it was 2.1 days; in series [3] it was 1.5 days; in series [4] it was 0.3 days; in series [5], 5.7 days.
